# Experimental data from patent publication US7902254B1, “Method for treating conditions mediated by PPAR using macelignan” (Newtree Co., Ltd., priority 2005, dated 2011).
# Key:
# [1] = tested on: target genes of PPARα (CD36, CPT-1, PDK4, ACO); assay: Expression of target genes of PPARα in SK-HEP-1 liver cells (RT-PCR); format: cell-based; conditions: SK-HEP-1 cells, 1, 5, 10 and 25 μM, 24 hours, vs control
# Procedure: SK-HEP-1 liver cells ([…]) cultured in a DMEM medium containing 10% FBS were pipetted into a multi-well plate in a cell count of 1×10^6 cells per well, and then further cultured for 5 hours. Different concentrations (1, 5, 10 and 25 μM) of macelignan were added to the medium of the cultured cells, and then the cells were left for 24 hours. The cells were collected and the total RNA was isolated by using TRIZOL (Invitrogen, USA). The total RNA isolated as described above was determined and cDNA was synthesized by using reverse transcriptase at 42° C. for 20 minutes with same amounts of RNA. The cDNA was subjected to RT-PCR by repeating 30 cycles of 95° C./1 minute, 56° C./30 seconds and 72° C./2 minutes with the following primers and Taq polymerase: primers for CD36 amplification (SEQ ID NO: 5(CGGCGATGAGAAAGCAGAA) and SEQ ID NO: 6(CAACCAGGCCCAGGAGC)), primers for CPT-1 amplification (SEQ ID NO: 7([…]) and SEQ ID NO: 8([…])), primers for PDK4 amplification (SEQ ID NO: 9([…]) and SEQ ID NO: 10(ATAAGTTAAGTGGGCCTGG)), and primers for ACO amplification (SEQ ID NO: 11([…]) and SEQ ID NO: 12([…])).
# [2] = tested on: obesity/diabetes mice (db/db mice); assay: Anti-obesity effect in obesity/diabetes mouse model; format: in vivo; conditions: for body weight / intramuscular triglyceride accumulation / white adipose tissue weight: 14th day, db/db mice
# Procedure: To investigate the anti-obesity effect of macelignan, seven mice of 10 week-aged obesity/diabetes mice (db/db mice) were used per test group. To the test groups, macelignan suspended in […] carboxymethyl cellulose was orally administered in an administration dose of 5 mg/kg (body weight), 10 mg/kg (body weight) and 25 mg/kg (body weight), once per day at a predetermined time, for 14 days. As a control, 0.25% carboxymethyl cellulose was orally administered alone to normal mice in the same dose as administered to the test group. As another control, 0.25% carboxymethyl cellulose was orally administered alone to obesity/diabetes mice in the same dose as administered to the test group. As still another control, 10 mg/kg (body weight) of troglitazone was orally administered. From 6 days before the administration, diet intake and body weight of each obesity/diabetes mouse were measured once per three days. Additionally, on the 14th day after the oral administration, white adipose tissue weight and the amount of triglyceride accumulated in muscle cell were measured (Triglyceride measuring kit, Wako, No. 432-40201, Japan).
# [3] = tested on: obesity/diabetes mice (db/db mice); assay: Effect upon hyperlipidemia and cardiovascular diseases in obesity/diabetes mouse model; format: in vivo; conditions: 14 days
# Procedure: To investigate effects of macelignan upon the treatment of hyperlipidemia and cardiovascular diseases, seven mice of 10 week-aged obesity/diabetes mice (db/db mice) were used per test group. To the test groups, macelignan suspended in 0.25% carboxymethyl cellulose was orally administered in an administration dose of 5 mg/kg (body weight), 10 mg/kg (body weight) and 25 mg/kg (body weight), once per day at a predetermined time, for 14 days. As a control, 0.25% carboxymethyl cellulose was orally administered alone to normal mice in the same dose as administered to the test group. As another control, 0.25% carboxymethyl cellulose was orally administered alone to obesity/diabetes mice in the same dose as administered to the test group. As still another control, 10 mg/kg (body weight) of troglitazone was orally administered. Fourteen days after the administration, triglyceride concentration in blood (triglyceride measuring kit, Wako, Japan), free fatty acid concentration in blood (free fatty acid measuring kit, Wako, Japan), total cholesterol content in blood (ASAN T-CHO-Lq Reagents, Asan Pharmaceutical Co. Ltd., Korea), HDL-cholesterol content in blood (ASAN HDL-Cholesterol, Asan Pharmaceutical Co. Ltd., Korea), IL-6 content in blood (IL-6 Quantikine ELISA, R&D systems, USA) and TNF-α content in blood were measured for the test groups and the controls.
# [4] = tested on: target genes of PPARγ (CD36, LPL, ACS, GyK); assay: Expression of target genes of PPARγ in liver tissue of obesity/diabetes mouse model; format: in vivo; conditions: 5, 10 and 25 mg/kg oral, 14 days, db/db mice, p<0.05 vs control
# Procedure: Liver tissue was removed from the test groups and the controls treated by oral administration in Examples 5˜8. The liver tissue was homogenized in liquid nitrogen and the total RNA was isolated from the crushed tissues by using TRIZOL (Invitrogen, USA). The total RNA isolated as described above was determined and cDNA was synthesized by using reverse transcriptase at 42° C. for 20 minutes. The cDNA was subjected to RT-PCR by repeating the cycle of 95° C./1 minute, 56° C./30 seconds and 72° C./2 minutes thirty times with the following primers and Taq polymerase: primers for CD36 amplification (SEQ ID NO: 5 and SEQ ID NO: 6), primers for LPL amplification (SEQ ID NO: 13 and SEQ ID NO: 14), primers for ACS amplification (SEQ ID NO: 17 (AGCAGAGCTTCGCACGGC) and SEQ ID NO: 18 ([…]) and primers for GyK amplification (SEQ ID NO: 19 ([…]) and SEQ ID NO: 20 ([…])). Expression of the genes was determined by real-time PCR.
structure (smiles),measurement,setting,value
"COc1cc(C[C@H](C)[C@H](C)Cc2ccc3c(c2)OCO3)ccc1O (single isomer, unassigned) [macelignan]","mRNA expression of CD36, CPT-1, PDK-4 and ACO",[1],significantly increased
same,body weight,[2]; 5 mg/kg oral,46.32 ± 2.31 g
same,intramuscular triglyceride accumulation,[2]; 5 mg/kg oral,24.7 ± 4.74 mg
same,white adipose tissue weight,[2]; 5 mg/kg oral,4230 ± 284 mg
same,body weight,[2]; 10 mg/kg oral,43.8 ± 2.94 g
same,intramuscular triglyceride accumulation,[2]; 10 mg/kg oral,22.8 ± 5.76 mg
same,white adipose tissue weight,[2]; 10 mg/kg oral,3900 ± 279 mg
same,body weight,[2]; 25 mg/kg oral,41.80 ± 1.56 g
same,intramuscular triglyceride accumulation,[2]; 25 mg/kg oral,20.2 ± 3.82 mg
same,white adipose tissue weight,[2]; 25 mg/kg oral,2690 ± 154 mg
same,diet intake,"[2]; 5, 10 and 25 mg/kg oral, 14 days, test groups vs controls",no significant difference
same,Free fatty acid in blood,[3]; 5 mg/kg oral,1.26 ± 0.19 mEq/l
same,HDL-cholesterol in blood,[3]; 5 mg/kg oral,43.5 ± 6.73 mg/dL
same,IL-6 in blood,[3]; 5 mg/kg oral,21.42 ± 11.42 pg/mL
same,TNF-α in blood,[3]; 5 mg/kg oral,36.92 ± 16.27 pg/mL
same,Total cholesterol in blood,[3]; 5 mg/kg oral,119 ± 13.8 mg/dL
same,Triglyceride in blood,[3]; 5 mg/kg oral,98.71 ± 36.62 mg/dL
same,Free fatty acid in blood,[3]; 10 mg/kg oral,1.16 ± 0.31 mEq/l
same,HDL-cholesterol in blood,[3]; 10 mg/kg oral,42.2 ± 7.29 mg/dL
same,IL-6 in blood,[3]; 10 mg/kg oral,12.04 ± 5.47 pg/mL
same,TNF-α in blood,[3]; 10 mg/kg oral,16.41 ± 9.60 pg/mL
same,Total cholesterol in blood,[3]; 10 mg/kg oral,110 ± 15.2 mg/dL
same,Triglyceride in blood,[3]; 10 mg/kg oral,91.71 ± 44.04 mg/dL
same,Free fatty acid in blood,[3]; 25 mg/kg oral,1.14 ± 0.15 mEq/l
same,HDL-cholesterol in blood,[3]; 25 mg/kg oral,46.6 ± 3.89 mg/dL
same,IL-6 in blood,[3]; 25 mg/kg oral,4.86 ± 2.46 pg/mL
same,TNF-α in blood,[3]; 25 mg/kg oral,27.54 ± 9.77 pg/mL
same,Total cholesterol in blood,[3]; 25 mg/kg oral,110 ± 23.7 mg/dL
same,Triglyceride in blood,[3]; 25 mg/kg oral,84.00 ± 31.24 mg/dL
same,"mRNA expression of CD36, LPL, ACS and GyK in liver tissue",[4],significantly increased
